# Tests used:
# GCase [1] = assay: GCase activity assay after compound treatment, GBA (N370S) iPSC-derived DA neurons; assay type: cell-based, human; details: for GCase activity (mean±SD): chronic treatment (two weeks) 10 uM, DMSO=90302±3986
# Experimental: The cells were harvested, lysed and centrifuged at 20,000×g for 20 min at 4° C. […] Recombinant human Glucosylceramidase/GBA (rhGBA) (R&D, 7410-GHB-020) was used as a positive control. Samples were incubated for 40 minutes at 37° C. and reaction stopped by adding equivolume 1M glycine, pH 12.5. 100 μl of reactions were loaded into white 96-well plates (Nunc, #136101) and fluorescence (ex=355 nm, em=460, 0.1 s) signal were measured in the CLARIOstar plate reader ([…]). Relative fluorescent units (RFUs) from non CBE-treated lysates were calculated by subtracting the signal from the corresponding CBE-treated lysates. […] DA neurons were cultured at high density (200,000/well) in the 96 well plates. Gcase activity was measured from DA neurons derived from GBA, LRRK2 and AHN iPSCs after compound treatment. […] Total protein in the lysate was quantified using Pierce BCA Protein Assay Kit (ThermoFisher). GCase activity can be used as a read out for compound screening with disease neurons where AHN serve as a control and compounds that could rescue the GCase activity would be considered a positive hit. […] Single compounds were tested both for acute exposure (3 days) and chronic exposure (two weeks).
# GCase [2] = biological target: T1, GCase (Homo sapiens, UniProt P04062); assay: GCase activity assay after compound treatment, LRRK2 (G2019S) iPSC-derived DA neurons; assay type: cell-based; details: 10 uM for two weeks, day 21 post thaw
# T1 construct: endogenous in cells; host or cells: DA neurons differentiated from LRRK2 patient, SNCA A53T engineered or AHN (healthy donor) iPSCs (lysate)
# T1 sequence (P04062 40-536): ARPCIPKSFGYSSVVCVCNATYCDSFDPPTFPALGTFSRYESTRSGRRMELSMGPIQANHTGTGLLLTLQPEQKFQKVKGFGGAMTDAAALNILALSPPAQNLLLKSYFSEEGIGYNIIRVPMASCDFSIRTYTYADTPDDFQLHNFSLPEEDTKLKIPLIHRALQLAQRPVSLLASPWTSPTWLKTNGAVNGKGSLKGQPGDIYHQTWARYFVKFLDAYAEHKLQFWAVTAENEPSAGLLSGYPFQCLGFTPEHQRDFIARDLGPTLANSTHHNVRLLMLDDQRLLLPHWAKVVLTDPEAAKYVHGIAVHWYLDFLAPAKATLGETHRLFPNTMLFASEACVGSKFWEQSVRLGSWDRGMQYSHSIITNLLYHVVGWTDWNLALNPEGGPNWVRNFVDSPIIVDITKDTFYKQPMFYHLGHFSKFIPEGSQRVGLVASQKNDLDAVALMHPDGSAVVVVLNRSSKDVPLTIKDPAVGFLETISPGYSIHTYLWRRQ
# Experimental: (§3) The cells were harvested, lysed and centrifuged at 20,000×g for 20 min at 4° C. […] Recombinant human Glucosylceramidase/GBA (rhGBA) (R&D, 7410-GHB-020) was used as a positive control. Samples were incubated for 40 minutes at 37° C. and reaction stopped by adding equivolume 1M glycine, pH 12.5. 100 μl of reactions were loaded into white 96-well plates (Nunc, #136101) and fluorescence (ex=355 nm, em=460, 0.1 s) signal were measured in the CLARIOstar plate reader (Molecular Devices). Relative fluorescent units (RFUs) from non CBE-treated lysates were calculated by subtracting the signal from the corresponding CBE-treated lysates. […] DA neurons were cultured at high density (200,000/well) in the 96 well plates. Gcase activity was measured from DA neurons derived from GBA, LRRK2 and AHN iPSCs after compound treatment. […] Total protein in the lysate was quantified using Pierce BCA Protein Assay Kit (ThermoFisher). […] Single compounds were tested both for acute exposure (3 days) and chronic exposure (two weeks).
# GCase [3] = biological target: T1, GCase; assay: GCase activity assay after compound treatment, SNCA A53T iPSC-derived DA neurons; assay type: cell-based; details: 10 uM for two weeks, day 21 post thaw
# Experimental: as §3
# GCase [4] = biological target: T1, GCase; assay: GCase activity assay after compound treatment, AHN iPSC-derived DA neurons; assay type: cell-based; details: 10 uM for two weeks, day 21 post thaw, from 165052 (DMSO vehicle)
# Experimental: as §3
# LRRK2 DA neurons = assay: Calcium imaging (Ca oscillation, FDSS/μCELL) of DA neuron spheroids, LRRK2; assay type: cell-based, human
# Experimental: (§1) For calcium imaging experiments, DA neurons were cultured as spheroids (50,000/well) in the 384 U bottom ULA plates (S-bio plates) and fed with Brainphys complete media (Brainphys basal media+neural supplement A+NSS). […] On day 14 post-plating (7 days post-treatment) cells were loaded with 1× EarlyTOX cardiotoxicity kit and after 2 hours of incubation at 37° C., Ca2+ oscillation captured using FDSS/μCELL instrument for 20 minutes. Waveform software was used for quantification of Ca oscillation and data were analyzed using GraphPad Prism.
# (§2) Calcium oscillation traces of day 14 post plated DA neurons were captured using FDSS/μCELL instrument for 20 minutes. […] Calcium transient properties including (FIG. 13B) number of peaks, (FIG. 13C) peak rates per minute and (FIG. 13D) area under the curve/peak (average) were quantified for all wells (repeats) of each cell line using Waveform software.
# SNCA DA neurons = assay: Calcium imaging (Ca oscillation, FDSS/μCELL) of DA neuron spheroids, SNCA; assay type: cell-based, human; details: 10 uM for one week
# Experimental: as §1, §2
# AHN DA neurons = assay: Calcium imaging (Ca oscillation, FDSS/μCELL) of DA neuron spheroids, AHN; assay type: cell-based, human; details: 10 uM for one week
# Experimental: as §1, §2
smiles,measurement,setting,value
Nc1c(Br)cc(Br)cc1CN[C@H]1CC[C@H](O)CC1 [Ambroxol],increase in Gcase activity,"GCase [1]; GBA neurons, 10 uM for two weeks, day 21 post thaw",12%
same,increase in Gcase activity,"GCase [1]; combinatorial screen, GBA cells, chronic treatment 10 uM, compared to DMSO",48%
same,GCase activity (mean±SD),"GCase [1]; combinatorial screen, GBA cells",highest GCase activity
same,GCase activity (mean±SD),"GCase [1]; combinatorial screen, GBA cells, listed as ABX",133659±10542
same,increase in Gcase activity,GCase [2],18%
same,increase in Gcase activity,GCase [3],14%
same,Gcase activity (Mean),GCase [4],171669
same,Peak rate (mean±SD),"LRRK2 DA neurons; LRRK2, 10 uM for one week, day 14 post plating, untreated 1.52±0.16",1.89±0.18 peaks per minute
same,effect on Ca oscillation compared to the untreated AHN DA neurons,"LRRK2 DA neurons; LRRK2 DA neurons, 10 uM for one week",caused hyperexcitability
same,effect on Ca oscillation compared to the untreated AHN DA neurons,SNCA DA neurons; SNCA DA neurons,caused hyperexcitability
same,number of peaks (mean±SD),"SNCA DA neurons; SNCA, day 14 post plating, 20 minutes, untreated 24.5±5.3",33.8±1.5
same,Peak rate (mean±SD),"SNCA DA neurons; SNCA, day 14 post plating, untreated 1.26±0.3",1.61±0.12 peaks per minute
same,effect on Ca oscillation compared to the untreated AHN DA neurons,AHN DA neurons; AHN DA neurons,caused hyperexcitability
same,number of peaks (mean±SD),"AHN DA neurons; AHN, day 14 post plating, 20 minutes, untreated 21.55±3",33.75±7.14
same,Peak rate (mean±SD),"AHN DA neurons; AHN, day 14 post plating, untreated 1.12±0.16",1.74±0.32 peaks per minute

# Reference: patent publication US20240034992A1, “DOPAMINERGIC NEURONS COMPRISING MUTATIONS AND METHODS OF USE THEREOF” (FUJIFILM Cellular Dynamics, Inc., priority 2021, published 2024)
